# From patent EP0930296A1, “FLUORINATED PROSTAGLANDIN DERIVATIVES AND MEDICINES” (ASAHI GLASS COMPANY LTD., priority 1996, dated 1998)
# Columns and labels:
# Japanese white rabbits = test: Test on eye irritations: conditions of the front of the eye, scores by improved Draize method; type: in vivo; conditions: for scored in total, as much as Latanoprost did: ratio of total scores, Table 2 to Table 3; for Condition of nictitating membrane / Edema of eyelid conjunctiva / Iridial congestion / Opacity of the cornea / Opaque fraction of the cornea / Rubor of eyelid conjunctiva / Rubor of supraocular conjunctiva / Secretions / Total score: ten times at 30 minute intervals; for Total score: sum of the scores
# Procedure: The eye irritation caused by a compound of the present invention was investigated in accordance with the method of Fukui et al. ("[…]-no-rinsho", 4277-89 (1970)). Male Japanese white rabbits weighing about 2.5 kg were used in the test. A test compound was applied into the conjunctival sac of a right eye ten times at 30 minute intervals. The conditions of the front and the anterior chamber of the eye were observed just before and 1, 2 and 4 hours after the final application, and the damage to the cornea was observed 4 hours after the final application. Into the conjunctival sac of a left eye, the base only, which was free from the test compound, was applied. A) Conditions of the front of the eye: Scores were determined on the basis of the following scale of damage to the eye according to the improved Draize method. • a) Opacity • No cloud (normal); 0 • Scattered clouds in pervasive regions (the details of the iris are clearly visible); 1 • Easily distinguishable translucent regions (details of the iris are not visible so clearly); 2 • Opaque regions, details of the iris are invisible, and the size of the pupil is barely recognizable; 3 • Unclear, the iris is invisible; 4 • b) The size of the region of the cornea falling into the above • None; 0 • More than 0 and not more than 1/4; 1 • More than 1/4 and less than 1/2; 2 • More than 1/2 and less than 3/4; 3 • More than 3/4 and all over; 4 • Normal; 0 • More […], stasis, swelling, congestion around the cornea than normal (any or combinations of them), the iris is still responsive to light (positive for slow reaction); 1 • Irresponsible to light, and bleeding and apparent destruction (any or all of them); 2 • a) Rubor of the eyelid conjunctiva • No congestion; 0 • Slightly reddish mucosae and slight but recognizable vasodilation of the edge of the eyelid; 0.5 • Clearly abnormal congestion, appreciably red mucosae and remarkable swelling; 1 • Pretty remarkably red ocular mucosae and slightly unclear peripheral vessels; 2 • More intense conditions than 2 and pervasive beef-like rubor; 3 • b) Edema of the eyelid conjunctiva • Not swollen; 0 • Slight tendency of edema; 0.5 • More swollen than normal; 1 • Apparently swollen together with part of the integument of the eyelid; 2 • Swollen with about half of the eyelid sagging; 3 • Swollen with about half to all of the eyelid sagging; 4 • c) Rubor of the supraocular conjunctiva • No congestion; 0 • Slight vasodilation around the cornea; 0.5 • More remarkable vasodilation; 1 • Remarkable vasodilation toward the edge of the eyelid or remarkable rubor; 2 • d) Condition of the nictitating membrane • No congestion; 0 • Recognizable vasodilation and tendency of edema; 0.5 • More appreciable vasodilation and rubor of the edge of the eyelid; 1 • Extreme vasodilation and remarkable rubor of the entire nictitating membrane; 2 • e) Secretions • No secretions; 0 • A certain amount more than normal (exclusive of small amount of secretions found at the medial angle of the eye of a normal animal); 1 • Some secretions with a wet eyelid and neighboring fur; 2 • Some secretions with a wet eyelid and a large area of wet fur around the eye; 3 • B) Conditions of the anterior chamber: After the observation of the front of the eye, the inside of the anterior chamber was checked for flares under a slit lamp. • C) Damage to the cornea: After observation of the conditions of the front and anterior chamber of the eye 4 hours after the final application, the cornea was stained with fluorescein, and the remaining dye on the cornea was observed under a slit lamp. […] Further, to comprehensively evaluate damage to the front of the eye, the sum of the scores was calculated as a total score.
# crab-eating macaques = test: Effects on intraocular pressure (air-puff applanation tonometer, ketamine anesthesia); type: in vivo; conditions: for Change in ocular pressure after application: average of 8 subjects, relative to initial intraocular pressure
# Procedure: The effect of a compound of the present invention on intraocular pressure was studied in accordance with the method disclosed in a report of a study on the effect of the tromethamine salt and the isopropyl ester of PGF2α on intraocular pressure in crab-eating macaques (Exp. Eye Res., 61, 677-683 (1995)).
# Male crab-eating macaques weighing from 5 to 7.5 kg (5-10 years old) were used in the test. The intraocular pressures were measured just before and 2, 4 and 6 hours after application of the test compound under ketamine anesthasia (5-10 mg/kg, intramuscular administration) by means of an air-puff applanation tonometer.
# The results of application of 0.1% (w/v) ophthalmic solution containing Latanoprost (reference pharmaceutical 1), which is known as a therapeutic agent for glaucoma are also shown in Table 1.
# [1] = tested on: smooth muscle in the digestive and circulatory systems; conditions: Izv. Akad. Nauk SSSR, Ser. Biol., 6, 831 (1989); cited from earlier work
# [2] = tested on: smooth muscle in the respiratory system; conditions: Izv. Akad. Nauk SSSR, Ser. Biol., 6, 831 (1989); cited from earlier work
# [3] = After 1 hr, 0.01% (w/v) ophthalmic solution (pharmaceutical 3), 50 µℓ, average of three subjects
# [4] = After 2 hrs, 0.01% (w/v) ophthalmic solution (pharmaceutical 3), 50 µℓ, average of three subjects
# [5] = After 4 hrs, 0.01% (w/v) ophthalmic solution (pharmaceutical 3), 50 µℓ, average of three subjects
# [6] = 2 hours, 20 µℓ of 0.1% (w/v) ophthalmic solution
# [7] = 4 hours, 20 µℓ of 0.1% (w/v) ophthalmic solution
# [8] = 6 hours, 20 µℓ of 0.1% (w/v) ophthalmic solution
# [9] = After 1 hr, 0.1% (w/v) ophthalmic solution (reference pharmaceutical 1)
# [10] = After 2 hrs, 0.1% (w/v) ophthalmic solution (reference pharmaceutical 1)
# [11] = After 4 hrs, 0.1% (w/v) ophthalmic solution (reference pharmaceutical 1)
smiles,measurement,setting,value
"CC(C)OC(=O)CCC/C=C\C[C@@H]1[C@@H](/C=C/C(F)COc2cc(Cl)cc(Cl)c2)[C@H](O)C[C@@H]1O (single isomer, unassigned) [Compound A, 16-(3,5-dichlorophenoxy)-15-deoxy-15-fluoro-17,18,19,20-tetranorprostaglandin F2α isopropyl ester]","scored in total, as much as Latanoprost did",Japanese white rabbits; 1 hour after application,about 1/5
same,"scored in total, as much as Latanoprost did",Japanese white rabbits; 2 hours after application,1/2
same,"scored in total, as much as Latanoprost did",Japanese white rabbits; 4 hours after application,1/3
same,Condition of nictitating membrane,Japanese white rabbits; [3],0.2
same,Edema of eyelid conjunctiva,Japanese white rabbits; [3],0
same,Iridial congestion,Japanese white rabbits; [3],0
same,Opacity of the cornea,Japanese white rabbits; [3],0
same,Opaque fraction of the cornea,Japanese white rabbits; [3],0
same,Rubor of eyelid conjunctiva,Japanese white rabbits; [3],0
same,Rubor of supraocular conjunctiva,Japanese white rabbits; [3],0.2
same,Secretions,Japanese white rabbits; [3],0
same,Condition of nictitating membrane,Japanese white rabbits; [4],0.2
same,Edema of eyelid conjunctiva,Japanese white rabbits; [4],0
same,Iridial congestion,Japanese white rabbits; [4],0
same,Opacity of the cornea,Japanese white rabbits; [4],0
same,Opaque fraction of the cornea,Japanese white rabbits; [4],0
same,Rubor of eyelid conjunctiva,Japanese white rabbits; [4],0.2
same,Rubor of supraocular conjunctiva,Japanese white rabbits; [4],0.5
same,Secretions,Japanese white rabbits; [4],0
same,Condition of nictitating membrane,Japanese white rabbits; [5],0
same,Edema of eyelid conjunctiva,Japanese white rabbits; [5],0
same,Iridial congestion,Japanese white rabbits; [5],0
same,Opacity of the cornea,Japanese white rabbits; [5],0
same,Opaque fraction of the cornea,Japanese white rabbits; [5],0
same,Rubor of eyelid conjunctiva,Japanese white rabbits; [5],0
same,Rubor of supraocular conjunctiva,Japanese white rabbits; [5],0.2
same,Secretions,Japanese white rabbits; [5],0
same,Total score,"Japanese white rabbits; After 1 hr, 0.01% (w/v) ophthalmic solution (pharmaceutical 3), 50 µℓ",0.4
same,Total score,"Japanese white rabbits; After 2 hrs, 0.01% (w/v) ophthalmic solution (pharmaceutical 3), 50 µℓ",0.9
same,Total score,"Japanese white rabbits; After 4 hrs, 0.01% (w/v) ophthalmic solution (pharmaceutical 3), 50 µℓ",0.2
same,irritation of the front of the eye,"Japanese white rabbits; when applied to the eye, slight congestion of the conjunctiva was observed",little irritant
same,Change in ocular pressure after application,"crab-eating macaques; 2 hours, 20 µℓ of 0.01% (w/v) ophthalmic solution",-0.8 mmHg
same,Change in ocular pressure after application,crab-eating macaques; [6],-1.0 mmHg
same,Change in ocular pressure after application,"crab-eating macaques; 4 hours, 20 µℓ of 0.01% (w/v) ophthalmic solution",-1.8 mmHg
same,Change in ocular pressure after application,crab-eating macaques; [7],-1.4 mmHg
same,"lowered the intraocular pressure, times as much as Latanoprost",crab-eating macaques; 6 hours after application,about 1.5 times
same,Change in ocular pressure after application,"crab-eating macaques; 6 hours, 20 µℓ of 0.01% (w/v) ophthalmic solution",-3.0 mmHg
same,Change in ocular pressure after application,crab-eating macaques; [8],-3.6 mmHg
"CCCCCC(F)/C=C/[C@@H]1[C@@H](C/C=C\CCCC(=O)O)[C@@H](O)C[C@H]1O (stereo partly drawn) [15-Fluoro-15-deoxy PGF2α, 15-fluoro-15-deoxy PGF2α]",action on the smooth muscle in the digestive and circulatory systems relative to the naturally occurring PGF2α,[1],comparable
same,contraction action on smooth muscle in the respiratory system as compared with the naturally occurring PGF2α,[2],100 fold
same,relaxation action on smooth muscle in the respiratory system as compared with the naturally occurring PGF2α,[2],1000 fold
"CC(C)OC(=O)CCC/C=C\C[C@@H]1[C@@H](CC[C@@H](O)CCc2ccccc2)[C@H](O)C[C@@H]1O [Latanoprost, 13,14-dihydro-17-phenyl-18,19,20-trinor PGF2α isopropyl ester, reference compound]",Condition of nictitating membrane,Japanese white rabbits; [9],0.3
same,Edema of eyelid conjunctiva,Japanese white rabbits; [9],0
same,Iridial congestion,Japanese white rabbits; [9],0
same,Opacity of the cornea,Japanese white rabbits; [9],0
same,Opaque fraction of the cornea,Japanese white rabbits; [9],0
same,Rubor of eyelid conjunctiva,Japanese white rabbits; [9],0.5
same,Rubor of supraocular conjunctiva,Japanese white rabbits; [9],0.8
same,Secretions,Japanese white rabbits; [9],0.3
same,Condition of nictitating membrane,Japanese white rabbits; [10],0.3
same,Edema of eyelid conjunctiva,Japanese white rabbits; [10],0
same,Iridial congestion,Japanese white rabbits; [10],0
same,Opacity of the cornea,Japanese white rabbits; [10],0
same,Opaque fraction of the cornea,Japanese white rabbits; [10],0
same,Rubor of eyelid conjunctiva,Japanese white rabbits; [10],0.5
same,Rubor of supraocular conjunctiva,Japanese white rabbits; [10],0.8
same,Secretions,Japanese white rabbits; [10],0
same,Condition of nictitating membrane,Japanese white rabbits; [11],0.3
same,Edema of eyelid conjunctiva,Japanese white rabbits; [11],0
same,Iridial congestion,Japanese white rabbits; [11],0
same,Opacity of the cornea,Japanese white rabbits; [11],0
same,Opaque fraction of the cornea,Japanese white rabbits; [11],0
same,Rubor of eyelid conjunctiva,Japanese white rabbits; [11],0
same,Rubor of supraocular conjunctiva,Japanese white rabbits; [11],0.3
same,Secretions,Japanese white rabbits; [11],0
same,Total score,Japanese white rabbits; [9],1.9
same,Total score,Japanese white rabbits; [10],1.6
same,Total score,Japanese white rabbits; [11],0.6
same,Change in ocular pressure after application,crab-eating macaques; [6],-0.6 mmHg
same,Change in ocular pressure after application,crab-eating macaques; [7],-2.6 mmHg
same,Change in ocular pressure after application,crab-eating macaques; [8],-2.3 mmHg
